In publication PMC9738727, “Purification and Characterization of Novel Anti-MRSA Peptides Produced by Brevibacillus sp. SPR-20” (Molecules, 2022):
Ends that are not written are not given here.

What was measured:
MRSA isolate 1096 = assay: microbe, parasite or virus in culture; format: cell-based, Staphylococcus aureus; conditions: isolate 1096, 24 h
Protocol: (§1) The MIC and MBC of the purified peptides from SPR-20 were determined by broth microdilution assay following a standard guideline. S. aureus TISTR 517 and MRSA isolate 142, 1096, and 2468 as bacterial strains were cultured in MH agar at 37 °C for 18 h. […] The cells were then diluted to 5 × 10^6 CFU/mL using cation-adjusted Mueller Hinton broth (CAMHB). The diluted cell suspension (10 μL) was transferred to each well of a 96-well plate. The purified peptide in the total volume of 100 µL was added to each well to obtain the final concentrations between 0.5 and 64 µg/mL. The standard antibiotics (vancomycin and cefoxitin) (Sigma-Aldrich Co., St. Louis, MO, USA) and antibiotic-free samples were the positive and negative controls, respectively. CAMHB without tested bacteria was used as a blank. The 96-well plates were incubated at 37 °C for 24 h, and the experiment was performed in triplicate for each strain. […] Subsequently, 100 µL of each dilution was spread on MH agar and then incubated at 37 °C for 24 h.

MRSA isolate 142 = assay: microbe, parasite or virus in culture; format: cell-based, Staphylococcus aureus; conditions: isolate 142, 24 h
Protocol: as §1

MRSA isolate 2468 [1] = assay: microbe, parasite or virus in culture; format: cell-based, Staphylococcus aureus; conditions: isolate 2468, 24 h
Protocol: as §1

[2] = system: S. aureus TISTR 517 and MRSA strains; assay: microbe, parasite or virus in culture; format: cell-based, Staphylococcus aureus; conditions: TISTR 517 and strains, 18 h
Protocol: as §1

S. aureus TISTR 517 [3] = assay: microbe, parasite or virus in culture; format: cell-based, Staphylococcus aureus; conditions: TISTR 517, 24 h
Protocol: as §1

[4] = Circular dichroism secondary structure content (CONTINLL); format: physicochemical; conditions: CD, 25 °C
Protocol: The purified peptides (0.6 mg/mL) were dissolved in deionized water or 50 mM SDS and introduced into the circular dichroism (CD) spectrophotometer (JASCO Corporation, Tokyo, Japan). A 1 mm quartz cell was used for the measurement. The CD spectra were collected at 25 °C in the wavelength between 190 and 260 nm with a scanning speed of 100 nm/min, a bandwidth of 1.0 nm, and a data resolution of 0.1 nm. Each experiment was performed in three replications, and the background spectrum of the corresponding solvent was subtracted from the peptide spectrum. The content of the secondary structure of the peptides was calculated using the CONTINLL program.

MRSA isolate 2468 [5] = assay: microbe, parasite or virus in culture; format: cell-based, Staphylococcus aureus; conditions: P1 at 15 µg/mL, from vancomycin standard curve
Protocol: (§2) The antimicrobial activity was measured by an agar well diffusion test with some modified methods. In brief, single colonies of the tested strains were suspended in 0.85% NaCl, and then the OD at 625 nm was adjusted to 0.1. The cell suspensions were spread on MH agar, and the tested samples (100 μL) were introduced into each well before incubation at 37 °C for 24 h. Each experiment was performed in three independent replicates, and the inhibition zone was measured and expressed as mean ± SD.
(§3) The agar well diffusion test was performed in triplicate for potency determination, using S. aureus TISTR 517 and MRSA isolate 2468 as the tested bacteria. […] The remaining standard and sample solutions were transferred to the other 3 wells. The plates were incubated at 37 °C for 18 h.

S. aureus TISTR 517 [6] = assay: microbe, parasite or virus in culture; format: cell-based, Staphylococcus aureus; conditions: P1 at 15 µg/mL, from vancomycin standard curve
Protocol: as §2, §3

S. aureus TISTR 517 [7] = assay: Proteolytic enzyme stability, remaining activity by agar well diffusion; format: in vitro ADME, Staphylococcus aureus; conditions: proteinase K, trypsin, α-chymotrypsin, both test strains
Protocol: as §2
The stability of the anti-MRSA peptide against several conditions was studied. […] The sensitivity of the peptide sample to proteolytic enzymes was investigated by incubating the sample with proteinase K, trypsin, and α-chymotrypsin (1 mg/mL) for 1 h. Surfactant compatibility of the substance was examined by incubating the sample with 1% SDS and 1% Triton X-100 for 1 h (AppliChem GmbH, Darmstadt, Germany). The acid and base hydrolysis property of the substance was assessed by pH adjustment to 2–14 for 1 h before the samples were neutralized to pH 7. […] The stability profiles were presented as the percentage of activity relative to the untreated condition (mean ± SD), and significant difference was determined by the Student’s t-test at a p-value < 0.05.

MRSA isolate 2468 [8] = assay: Killing kinetics; format: cell-based, Staphylococcus aureus; conditions: for killing half-time / rate constant of cell death within 24 h: linear regression
Protocol: (§4) S. aureus TISTR 517 and MRSA isolate 2468 were cultured in CAMHB and standardized to obtain the cell number of 5 × 10^5 CFU/mL for initial treatment. […] The reactions were incubated at 37 °C, and then the total volume was spread on MH agar at specific time intervals (0–24 h). The plates were incubated at 37 °C for 24 h before colony count. […] The rate constant of cell death within 24 h and the killing half-time were calculated based on slope and linear regression relationship, respectively. Each experiment was performed in triplicate in 96-well plates. Significant differences (p-value < 0.05) were analyzed by two-way ANOVA and post hoc Tukey’s test for multiple comparisons between treated and non-treated samples.

S. aureus TISTR 517 [9] = assay: Killing kinetics; format: cell-based, Staphylococcus aureus; conditions: for killing half-time / rate constant of cell death within 24 h: linear regression; for time of eradication effect: strain not named in the sentence (tested bacteria)
Protocol: as §4

For VVVNVLVKVLPPPVV [Peptide P1], the MBC (MRSA isolate 1096) was 4 µg/mL, the MIC (MRSA isolate 1096) was 2 µg/mL and the MBC (MRSA isolate 142) was 4 µg/mL. For the same sequence, the MIC (MRSA isolate 142) was 2 µg/mL, the MBC (MRSA isolate 2468 [1]) was 4 µg/mL and the MIC (MRSA isolate 2468 [1]) was 2 µg/mL. For the same sequence, the MIC [2] was 1.27 µM, the MBC (S. aureus TISTR 517 [3]) was 4 µg/mL and the MIC (S. aureus TISTR 517 [3]) was 2 µg/mL. It also gave a Random ([4]; 0.6 mg/mL in 50 mM SDS) of 34.6%, a Turn ([4]; 0.6 mg/mL in 50 mM SDS) of 10.6% and a α-Helix ([4]; 0.6 mg/mL in 50 mM SDS) of 25.5%. It also gave a β-Strand ([4]; 0.6 mg/mL in 50 mM SDS) of 29.3%, a Random ([4]; 0.6 mg/mL in H2O) of 32.4% and a Turn ([4]; 0.6 mg/mL in H2O) of 19.5%. The α-Helix ([4]; 0.6 mg/mL in H2O) was 4.1%, the β-Strand ([4]; 0.6 mg/mL in H2O) was 44.0% and the “vancomycin concentration of equivalent potency” value (MRSA isolate 2468 [5]) was 85.97 to 109.05 µg/mL. The “vancomycin concentration of equivalent potency” value (S. aureus TISTR 517 [6]) was 76.29 to 87.36 µg/mL, the “activity when incubated with proteolytic enzymes” value (S. aureus TISTR 517 [7]) was “more than 90%” and the killing half-time (MRSA isolate 2468 [8]; 1× MIC) was 47.75 h. For the same sequence, the “rate constant of cell death within 24 h” value (MRSA isolate 2468 [8]; 1× MIC) was -0.06 h⁻¹, the killing half-time (MRSA isolate 2468 [8]; 2× MIC) was 13.21 h and the “rate constant of cell death within 24 h” value (MRSA isolate 2468 [8]; 2× MIC) was -0.23 h⁻¹. For the same sequence, the inhibition rate (MRSA isolate 2468 [8]; 4× MIC, during 3–12 h) was 0.32 h⁻¹, the killing half-time (MRSA isolate 2468 [8]; 4× MIC, 95% CI 5.67 to 18.47) was 9.78 h and the “rate constant of cell death within 24 h” value (MRSA isolate 2468 [8]; 4× MIC, 95% CI −0.17 to −0.36) was -0.27 h⁻¹. The inhibition rate (MRSA isolate 2468 [8]; after 6 h of treatment, 1× MIC) was 0.06 h⁻¹, the inhibition rate (MRSA isolate 2468 [8]; after 6 h of treatment, 2× MIC) was 0.24 h⁻¹ and the “reduction rate of viable cells” value (MRSA isolate 2468 [8]; first 3 h) was 0.10 h⁻¹. The killing half-time (S. aureus TISTR 517 [9]; 1× MIC) was 25.36 h, the “rate constant of cell death within 24 h” value (S. aureus TISTR 517 [9]; 1× MIC) was -0.11 h⁻¹ and the killing half-time (S. aureus TISTR 517 [9]; 2× MIC) was 11.08 h. The “rate constant of cell death within 24 h” value (S. aureus TISTR 517 [9]; 2× MIC) was -0.26 h⁻¹, the “time of eradication effect” value (S. aureus TISTR 517 [9]; 2× MIC) was 24 h and the “reduction rate of viable cells” value (S. aureus TISTR 517 [9]; 3-24 h, 1× MIC) was 0.12 h⁻¹. For the same sequence, the “reduction rate of viable cells” value (S. aureus TISTR 517 [9]; 3-24 h, 2× MIC) was 0.23 h⁻¹, the “reduction rate of viable cells” value (S. aureus TISTR 517 [9]; 3-24 h, 4× MIC) was 0.31 h⁻¹ and the killing half-time (S. aureus TISTR 517 [9]; 4× MIC, 95% CI 5.35 to 20.12) was 9.80 h. For the same sequence, the “rate constant of cell death within 24 h” value (S. aureus TISTR 517 [9]; 4× MIC, 95% CI −0.16 to −0.38) was -0.27 h⁻¹, the “time of eradication effect” value (S. aureus TISTR 517 [9]; 4× MIC) was 18 h and the “reduction rate of viable cells” value (S. aureus TISTR 517 [9]; first 3 h, all peptide concentrations (1×, 2×, 4× MIC)) was 0.14 h⁻¹.
